# ChEMBL document CHEMBL1154570, “HIV-inhibitory cembrane derivatives from a Philippines collection of the soft coral Lobophytum species” (J Nat Prod, 2000)
# What was measured:
# [1] = system: Human immunodeficiency virus 1; assay: Antiviral activity against HIV1 assessed as cellular protection by cell based XTT assay; format: functional
# [2] = system: Human immunodeficiency virus 1; assay: Antiviral activity against HIV1 assessed as inhibition of cytopathic effect by cell based XTT assay; format: functional, organism-based
Compound,Activity [1],EC50 [2],IC50 [2]
C/C1=C\[C@@H]2OC(=O)[C@@H](CN(C)C)[C@@H]2CC/C(C)=C/CC/C(C(=O)O)=C/CC1,55%,3.3 µg/mL,10.2 µg/mL
C=C1C(=O)O[C@H]2/C=C(\C)CC/C=C(\C(=O)O)CC/C=C(\C)CC[C@@H]12 [(7Z)-LOBOHEDLEOLIDE],55%,4.6 µg/mL,7.6 µg/mL
C=C1C(=O)O[C@H]2/C=C(\C)CC/C=C(/C(=O)O)CC/C=C(\C)CC[C@@H]12 [LOBOHEDLEOLIDE],55%,3.6 µg/mL,9 µg/mL
